These results are taken from patent US9168243B2, “Pharmaceutical compositions comprising 8-substituted dibenzylbutyrolactone lignans” (priority 2010, dated 2015).

“Also recorded” adds a separate entry of the source.

For data set [1], the system named is LNCaP prostate cancer cells. Kind of data set: Flow cytometric screen for sensitization to TRAIL-induced apoptosis (nuclear fragmentation by propidium iodide, mitochondrial depolarization by TMRM). It counts as cell-based. The note with it: for capacity to sensitize LNCaP prostate cancer cells to TRAIL-induced apoptosis: androgen-deprived, 40 μM lignan 1 hour before 10 ng/ml izTRAIL, 20 hours. The procedure: (§1) Flow cytometric analysis of apoptosis with HTS platform was performed on cells that were plated on a 96-well plate as triplicate samples. After 24 hours in androgen-deprived conditions, the cells were pretreated with 40 μM lignans or lignan derivatives for 1 hour prior to addition of 10 ng/ml izTRAIL. Twenty hours later the plate was centrifuged with a culture plate rotor (1000 rpm, 3 minutes). For analysis of nuclear fragmentation, propidium iodide (PI) buffer (40 mM Na-citrate, 0.3% Triton X-100, 50 μg/ml PI; Sigma) was added to the wells. After 10 minutes incubation at room temperature, the plate was analyzed with LSRII flow cytometer equipped with HTS platform (PE-A channel). The fraction of sub-G0/G1 events (nuclear fragmentation) was gated as a measure of apoptotic cell death. For detection of mitochondrial depolarization, the cells were detached by trypsinization of the cells and incubated in 20 nM tetramethylrhodamine (TMRM; Invitrogen) in warm culture medium for 10 minutes before analysis. The plate was analyzed with LSRII flow cytometer equipped with HTS platform (FSC, PE-A channel). The cells with decreased TMRM incorporation were considered to have undergone mitochondrial membrane depolarization. Activated caspase-3 in cells was labeled with phycerythrin (PE)-conjugated antibody according to manufacturer's protocol (BD Pharmingen) and analyzed by FacsCalibur flow cytometer (FL-2, FSC).
LNCaP cells were cultured in the absence of 1 nM androgen and incubated with lignan compounds (40 μM) for 1 hour before izTRAIL treatment (10 ng/ml) or control for 20 hours. The samples were screened for nuclear fragmentation by propidium iodide labeling (FIG. 1A) or mitochondrial depolarization by TMRM labeling (FIG. 1B). The plates were analyzed with LSRII flow cytometer equipped with HTS platform (FSC, PE-A channels). The fraction of sub-G0/G1 events (nuclear fragmentation; PE-A channel) was gated as a measure of apoptotic cell death (FIG. 1A) and the cells with decreased TMRM incorporation (PE-A channel) were considered to have undergone mitochondrial membrane depolarization (FIG. 1B). Representative histograms and dot blots for control, TRAIL, nortrachelogenin (NTG) and NTG+TRAIL treatments are viewed.
Importantly, substitution with methyl group at position 8 further increases activity of dibenzylbutyrolactone lignans in sensitization of LNCaP prostate cancer cells to TRAIL-mediated apoptosis (FIG. 8). LNCaP cells were cultured in the absence of 1 nM androgen and incubated with indicated lignan compounds (40 μM) for 1 hour before izTRAIL treatment (10 ng/ml) or control for 20 hours. The cells were disrupted and the nuclei labeled for DNA content with propidium iodide. The samples were analyzed by flow cytometry and the fraction of sub-G0/G1 events (nuclear fragmentation) was detected as a measure of apoptotic cell death (mean±SEM; n=4). (FIG. 8A). Alternatively, LNCaP cells (+/−1 nM androgen) were incubated with 0-100 μM 8-Me-MAT for 1 hour after which total cell lysates were prepared and the samples were analyzed by Western blotting for Akt and phospho-Akt(ser473) expression.

Data set [2] concerns phospho-Akt(ser473). The data set is described as follows: Western blot of Akt / phospho-Akt(ser473). Type of data set: cell-based. Particulars: LNCaP +/- 1 nM androgen; 0-100 μM lignan, 1 hour (NTG also 100 μM, 0-8 hours). The procedure:
Whole cell lysates were prepared by lysing floating and attached cells in Laemmli sample buffer and boiling the samples for 10 minutes. Proteins were separated by SDS-PAGE and transferred on PVDF membrane (Millipore). Western blotting was performed using antibodies against Akt, phospho-Akt (Ser473), GSK-3β, phospho-GSK-3β (Ser9) and phospho-EGF receptor Tyr(1068) (Cell Signalling Technology), Actin (clone AC-40; Sigma-Aldrich), PI3K p85α (clone 4/PI3-Kinase; BD Pharmingen), EGF receptor, Insulin receptor β and IGF-I receptor β (Santa Cruz Biotechnology), and Phospho-tyrosine (clone 4G10; Millipore). HRP-conjugated secondary antibodies were from Southern Biotechnology Associates, Promega, and Amersham Biosciences. The results were visualized using the ECL method (Amersham Biosciences) on x-ray film. The presented Western blot results are representative of at least three independent experiments. Densitometric analysis of Western blots was done using scanned films with the MCID M5+ software. The values were normalized to the untreated control sample, which was given the value 1. The histograms in FIG. 4 present a relative decrease in ratio of phosphorylated vs. non-phosphorylated protein compared to control cells.
LNCaP cells (+/−1 nM androgen) were treated with 0-100 μM enterolactone (ENL), matairesinol (MAT) or NTG for 1 hour prior to preparation of total cell lysates (FIG. 4A). The relative decrease in pAkt/Akt ratio was quantified from western blot analysis with Akt (60 kDa) and phospho-Akt(ser473) (Mean±SEM; n=4; Student's t-test *p<0.05, **p<0.01). Alternatively, androgen-deprived LNCaP cells were incubated with 100 μM NTG for 2 hours, fixed and labeled with Akt antibody followed by Alexa 546-conjugated secondary antibody. The samples were viewed at LSM 510 confocal microscope (63× oil objective, 543 nm excitation) (FIG. 4B). To examine the time-dependence of the observed inhibitory effect, LNCaP cells (+/−1 nM androgen) were incubated with 100 μM NTG for 0-8 hours after which total cell lysates were prepared. The western blot analysis with Akt, phospho-Akt(ser473), GSK-3β and phospho-GSK-3β(ser9) was quantified. The histogram presents a relative decrease in pAkt/Akt ratio (FIG. 4C.) or pGSK-3β/GSK-3β ratio (FIG. 4D.) compared to control cells (Mean±SEM; n=3). […]
Importantly, substitution with methyl group at position 8 further increases activity of dibenzylbutyrolactone lignans in sensitization of LNCaP prostate cancer cells to TRAIL-mediated apoptosis (FIG. 8). […] The samples were analyzed by flow cytometry and the fraction of sub-G0/G1 events (nuclear fragmentation) was detected as a measure of apoptotic cell death (mean±SEM; n=4). […]

Data set [3] deals with phospho-Akt(ser473). Particulars: reported earlier; cited from earlier work.
For data set [4] the following is noted: in vivo; cited from earlier work.
The subject of data set [5] is LNCaP cells. The data set is described as follows: Caspase-3 activation by flow cytometry, TRAIL with or without NTG. Type of data set: cell-based. Particulars: TRAIL alone, 20 h. The protocol:
as §1
As NTG was identified as the most efficient TRAIL-sensitizing lignan, we analyzed the ability of NTG to affect the efficacy of different TRAIL concentrations in triggering of caspase-3 activation (FIG. 2A). The TRAIL resistant LNCaP cells were cultured in androgen-supplied and androgen-deprived conditions to simulate the effects of androgen-deprivation therapy, and treated for 20 h with TRAIL alone or with the combination of 40 μM NTG and TRAIL. The percentage of cells with activated caspase-3 increased from maximum of 15% to 60% for androgen-deprived, and from 13% to 30% for androgen-supplied cells (Mean±SEM; n≧3) (FIG. 2A).

The subject of data set [6] is LNCaP cells. Kind of data set: Clonogenic assay. It counts as cell-based. Particulars: 11 days; 10 ng/ml TRAIL or 40 μM NTG alone. The procedure: Five hundred LNCaP cells were plated in 1 ml of culture medium and let to adhere prior to addition of the indicated treatments. After 11 days of incubation, cell colonies were fixed with glutaraldehyde (6.0% v/v), stained with crystal violet (0.5% w/v) and imaged using a digital camera.
To investigate the effects of NTG alone and in combination with TRAIL on colony formation ability, the LNCaP cells were plated in low confluency and treated for 11 days.

Consider `COc1cc(CC2COC(=O)C2(C)Cc2ccc(O)c(OC)c2)ccc1O` (stereo not shown) [8-Me-MAT, 8-Methylmatairesinol], for which the “capacity to sensitize LNCaP prostate cancer cells to TRAIL-induced apoptosis” value in data set [1] was “increased capacity to sensitize LNCaP prostate cancer cells to TRAIL-mediated apoptosis”. In addition, the “Akt phosphorylation (pAkt/Akt ratio)” value with phospho-Akt(ser473) [2] was “strongly inhibitory effect on Akt phosphorylation; also recorded: inhibit Akt phosphorylation yet more efficiently than ENL or MAT”.

Consider `COc1ccc(CC2COC(=O)C2(C)Cc2ccc(OC)c(OC)c2)cc1OC` (stereo not shown) [8-Me-dimethylmatairesinol, 8-Methyldimethylmatairesinol], for which the “capacity to sensitize LNCaP prostate cancer cells to TRAIL-induced apoptosis” value in data set [1] is “clearly enhances the activity”.

`O=C1OC[C@H](Cc2cccc(O)c2)[C@H]1Cc1cccc(O)c1` [ENL, Enterolactone]: in the data set on phospho-Akt(ser473) [3], the “Akt phosphorylation in prostate cancer cells” value is “can reportedly inhibit Akt phosphorylation”.

In the case of `COc1cc(C[C@H]2COC(=O)[C@@H]2Cc2ccc(O)c(OC)c2)ccc1O` [MAT, Matairesinol, reference compound], the “increase of the apoptotic response compared to TRAIL alone (factor)” value in data set [1] (lignan in combination with TRAIL) is listed as 2.5. Moreover, the “Akt phosphorylation in prostate cancer cells” value with phospho-Akt(ser473) [3] is given as “can reportedly inhibit Akt phosphorylation”. The “conversion into the mammalian lignans” value in data set [4] is given as “converted to ENL in the digestive tract”.

Turning to TRAIL, the “percentage of cells with activated caspase-3 (maximum)” value came out at 15% in the data set on LNCaP cells [5] (androgen-deprived LNCaP) and 13% with LNCaP cells [5] (androgen-supplied LNCaP). In the data set with LNCaP cells [6], the “colony formation ability, single agent” value was “not able to inhibit LNCaP growth”.
